Measurements from patent US20250282736A1, “SMALL MOLECULE MODULATORS OF HUMAN PREGNANE X RECEPTOR” (ST. JUDE CHILDREN'S RESEARCH HOSPITAL, priority 2022, published 2025).
Where two headings read alike, the source gives them in different places. Each block holds one compound with its values, some of them ahead of it.

Tests used:
hPXR [1] = target: T1, hPXR (Homo sapiens (Human), UniProt O75469); experiment: hPXR binding assay; details: for inhibition at 10 µM: read-out: Binding (% inhibition at 10 μM)
hPXR [2] = target: T1, hPXR; experiment: cell-based hPXR agonistic assay; details: for Agonist (% activation at 10 μM): rifampicin at 10 μM as 100% activation, DMSO (0.3%) as 0%
hPXR [3] = target: T1, hPXR; experiment: cell-based hPXR antagonistic assay; details: for inhibition at 10 µM: read-out: Antagonist (% inhibition at 10 μM)
hPXR [4] = target: T1, hPXR; experiment: cell-based hPXR inverse agonistic assay; details: for inhibition at 10 µM: read-out: Inverse agonist (% inhibition at 10 μM)
[5] = read-out: Binding (IC50/μM), hPXR binding assay
[6] = read-out: Agonist (EC50/μM), cell-based hPXR agonistic assay

T1 sequence (O75469 whole entry): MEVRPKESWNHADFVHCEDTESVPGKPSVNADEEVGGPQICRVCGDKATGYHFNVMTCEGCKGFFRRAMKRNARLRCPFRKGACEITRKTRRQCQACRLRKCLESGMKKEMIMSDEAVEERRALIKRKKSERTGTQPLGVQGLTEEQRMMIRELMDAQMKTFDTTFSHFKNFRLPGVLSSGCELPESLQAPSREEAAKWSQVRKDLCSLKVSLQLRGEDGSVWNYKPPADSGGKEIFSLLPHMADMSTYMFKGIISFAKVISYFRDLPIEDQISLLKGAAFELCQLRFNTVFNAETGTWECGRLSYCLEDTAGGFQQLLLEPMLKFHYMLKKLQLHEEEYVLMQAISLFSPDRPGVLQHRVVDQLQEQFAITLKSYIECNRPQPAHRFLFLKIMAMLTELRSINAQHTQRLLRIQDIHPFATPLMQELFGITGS

IC50 (hPXR [1]): > 30 µM | EC50 (hPXR [2]): > 30 µM | IC50 (hPXR [3]): > 30 µM | IC50 (hPXR [4]): > 30 µM
SMILES: COc1ccc(OC)c(-n2nnc(C(=O)Nc3cc(C(C)(C)C)ccc3OCCCCCCCCOc3ccc(C(C)(C)C)cc3NC(=O)c3nnn(-c4cc(OC)ccc4OC)c3C)c2C)c1 [B20]

IC50 (hPXR [1]): > 30 µM | EC50 (hPXR [2]): > 30 µM | IC50 (hPXR [3]): > 30 µM | IC50 (hPXR [4]): 16.7 ± 3.34 µM | inhibition at 10 µM (hPXR [4]): 45%
SMILES: COc1ccc(OC)c(-n2nnc(C(=O)Nc3cc(C(C)(C)C)ccc3OCCOCCOCCOCCOCCOCCOc3ccc(C(C)(C)C)cc3NC(=O)c3nnn(-c4cc(OC)ccc4OC)c3C)c2C)c1 [B23, N,N′-((3,6,9,12,15-pentaoxaheptadecane-1,17-diylbis(oxy))bis(3-(tert-butyl)-6,1-phenylene))bis(1-(2,5-dimethoxyphenyl)-5-methyl-1H-1,2,3-triazole-4-carboxamide)]

inhibition at 10 µM (hPXR [1]): 74% | IC50 (hPXR [1]; [5]): 0.5 ± 0.2 µM | EC50 (hPXR [2]): 0.27 µM | Agonist (% activation at 10 μM) (hPXR [2]): (77 ± 1)% | IC50 (hPXR [3]): > 30 µM | IC50 (hPXR [4]): > 30 µM
SMILES: COc1ccc(OC)c(-n2nnc(C(=O)Nc3cc(C(C)(C)C)ccc3OCC(=O)OC(C)(C)C)c2C)c1 [B24, tert-butyl 2-(4-(tert-butyl)-2-(1-(2,5-dimethoxyphenyl)-5-methyl-1H-1,2,3-triazole-4-carboxamido)phenoxy)acetate]

inhibition at 10 µM (hPXR [1]): 85% | IC50 (hPXR [1]; [5]): 0.0177 ± 0.0031 µM | EC50 (hPXR [2]): > 30 µM | IC50 (hPXR [3]): 0.18 µM | inhibition at 10 µM (hPXR [3]): 99% | IC50 (hPXR [4]): 0.026 µM | inhibition at 10 µM (hPXR [4]): 100%
SMILES: COc1ccc(OC)c(-n2nnc(C(=O)Nc3cc(C(C)(C)C)ccc3OCC(C)(C)C)c2C)c1 [B29]

inhibition at 10 µM (hPXR [1]): 91% | IC50 (hPXR [1]; [5]): 0.0075 ± 0.0011 µM | EC50 (hPXR [2]): > 30 µM | IC50 (hPXR [3]): 0.015 µM | inhibition at 10 µM (hPXR [3]): 105% | IC50 (hPXR [4]): 0.0016 µM | inhibition at 10 µM (hPXR [4]): 111%
SMILES: CCC(CC)Oc1ccc(C(C)(C)C)cc1NC(=O)c1nnn(-c2cc(OC)ccc2OC)c1C [B31]

inhibition at 10 µM (hPXR [1]): 81% | IC50 (hPXR [1]; [5]): 0.018 µM | EC50 (hPXR [2]): > 30 µM | IC50 (hPXR [3]): 0.26 µM | inhibition at 10 µM (hPXR [3]): 96% | inhibition at 10 µM (hPXR [4]): 89%
SMILES: COc1ccc(OC)c(-n2nnc(C(=O)Nc3cc(C(C)(C)C)ccc3OCC(C)C)c2C)c1 [B32]

inhibition at 10 µM (hPXR [1]): 92% | IC50 (hPXR [1]; [5]): 0.019 µM | EC50 (hPXR [2]): > 30 µM | IC50 (hPXR [3]): 0.012 ± 0.003 µM | inhibition at 10 µM (hPXR [3]): 108% | IC50 (hPXR [4]): 0.0023 ± 0.0008 µM | inhibition at 10 µM (hPXR [4]): 147%
SMILES: CCCC(CC)Oc1ccc(C(C)(C)C)cc1NC(=O)c1nnn(-c2cc(OC)ccc2OC)c1C (stereo not drawn) [B34, N-(5-(Tert-Butyl)-2-(Hexan-3-yloxy)Phenyl)-1-(2,5-Dimethoxyphenyl)-5-Methyl-1H-1,2,3-Triazole-4-Carboxamide]

IC50 (hPXR [1]): > 30 µM | Agonist (% activation at 10 μM) (hPXR [2]): (25 ± 7)% | EC50 (hPXR [2]; [6]): 0.9 ± 0.22 µM | IC50 (hPXR [3]): > 30 µM | IC50 (hPXR [4]): > 30 µM
SMILES: COc1ccc(OC)c(-n2nnc(C(=O)Nc3cc(C(C)(C)C)ccc3N)c2C)c1 [B37]

inhibition at 10 µM (hPXR [1]): 60% | IC50 (hPXR [1]; [5]): 3.22 ± 2.29 µM | Agonist (% activation at 10 μM) (hPXR [2]): (60 ± 13)% | EC50 (hPXR [2]; [6]): 0.99 ± 0.22 µM | IC50 (hPXR [3]): > 30 µM | IC50 (hPXR [4]): > 30 µM
SMILES: COc1ccc(OC)c(-n2nnc(C(=O)Nc3cc(C(C)(C)C)ccc3NC(C)=O)c2C)c1 [B38]

Continued, compound first:

SMILES: COc1ccc(OC)c(-n2nnc(C(=O)Nc3cccc(N4CCN(C)CC4)c3)c2C)c1 [A15]
IC50 (hPXR [1]): > 30 µM | EC50 (hPXR [2]): > 30 µM | IC50 (hPXR [3]): > 30 µM | IC50 (hPXR [4]): > 30 µM

SMILES: COc1ccc(OC)c(-n2nnc(C(=O)Nc3ccc(N4CCN(C)CC4)cc3)c2C)c1 [A16]
IC50 (hPXR [1]): > 30 µM | EC50 (hPXR [2]): > 30 µM | IC50 (hPXR [3]): > 30 µM | IC50 (hPXR [4]): > 30 µM

SMILES: COc1ccc(OC)c(-n2nnc(C(=O)Nc3ccc(CN4CCN(C)CC4)cc3)c2C)c1 [A17]
IC50 (hPXR [1]): > 30 µM | EC50 (hPXR [2]): > 30 µM | IC50 (hPXR [3]): > 30 µM | IC50 (hPXR [4]): > 30 µM

SMILES: CCOc1cc(NC(=O)c2nnn(-c3cc(OC)ccc3OC)c2C)nc(OCC)n1 [A18]
inhibition at 10 µM (hPXR [1]): 36% | IC50 (hPXR [1]; [5]): 12.6 ± 3.09 µM | EC50 (hPXR [2]): > 30 µM | IC50 (hPXR [3]): > 30 µM | IC50 (hPXR [4]): > 30 µM

SMILES: COc1ccc(OC)c(-n2nnc(C(=O)Nc3cc(-n4cnc(C)c4)cc(C(F)(F)F)c3)c2C)c1 [A20]
IC50 (hPXR [1]): > 30 µM | EC50 (hPXR [2]): > 30 µM | IC50 (hPXR [3]): > 30 µM | IC50 (hPXR [4]): > 30 µM

SMILES: COc1ccc(OC)c(-n2nnc(C(=O)Nc3ccc(CN4CCN(C)CC4)c(C(F)(F)F)c3)c2C)c1 [A21]
IC50 (hPXR [1]): > 30 µM | EC50 (hPXR [2]): > 30 µM | IC50 (hPXR [3]): > 30 µM | IC50 (hPXR [4]): > 30 µM

SMILES: COC(=O)c1ccc(NC(=O)c2nnn(-c3cc(OC)ccc3OC)c2C)cc1N1CCCC1 [A22]
IC50 (hPXR [1]): > 30 µM | EC50 (hPXR [2]): > 30 µM | IC50 (hPXR [3]): > 30 µM | IC50 (hPXR [4]): 10.6 ± 8.63 µM | inhibition at 10 µM (hPXR [4]): 129%

SMILES: COc1ccc(OC)c(-n2nnc(C(=O)Nc3ccc4c(c3)Nc3ccccc3CC4)c2C)c1 [A23]
IC50 (hPXR [1]): > 30 µM | EC50 (hPXR [2]): > 30 µM | IC50 (hPXR [3]): 13.4 ± 0.12 µM | inhibition at 10 µM (hPXR [3]): 23% | IC50 (hPXR [4]): > 30 µM

SMILES: COc1ccc(OC)c(-n2nnc(C(=O)Nc3cc(C)ccc3OC)c2C)c1 [A25]
inhibition at 10 µM (hPXR [1]): 73% | IC50 (hPXR [1]; [5]): 1.36 ± 0.23 µM | EC50 (hPXR [2]): > 30 µM | IC50 (hPXR [3]): 12 ± 2 µM | inhibition at 10 µM (hPXR [3]): 70% | IC50 (hPXR [4]): 20.6 ± 0.42 µM | inhibition at 10 µM (hPXR [4]): 53%

SMILES: COc1ccc(OC)c(-n2nnc(C(=O)Nc3cc(C(C)(C)C)ccc3O)c2C)c1 [B2, N-(5-(tert-butyl)-2-hydroxyphenyl)-1-(2,5-dimethoxyphenyl)-5-methyl-1H-1,2,3-triazole-4-carboxamide]
inhibition at 10 µM (hPXR [1]): 84% | IC50 (hPXR [1]; [5]): 2.33 ± 0.43 µM | EC50 (hPXR [2]): > 30 µM | IC50 (hPXR [3]): > 30 µM | IC50 (hPXR [4]): > 30 µM

SMILES: COc1ccc(OC)c(-n2nnc(C(=O)Nc3cc(C(C)(C)C)ccc3OC(=O)c3nnn(-c4cc(OC)ccc4OC)c3C)c2C)c1 [B3, 4-(tert-butyl)-2-(1-(2,5-dimethoxyphenyl)-5-methyl-1H-1,2,3-triazole-4-carboxamido)phenyl 1-(2,5-dimethoxyphenyl)-5-methyl-1H-1,2,3-triazole-4-carboxylate]
IC50 (hPXR [1]): > 30 µM | EC50 (hPXR [2]): 0.59 µM | Agonist (% activation at 10 μM) (hPXR [2]): (55 ± 6)% | IC50 (hPXR [3]): > 30 µM | IC50 (hPXR [4]): > 30 µM

SMILES: COc1ccc(OC)c(-n2nnc(C(=O)Nc3cc(C(C)(C)C)ccc3OCCOCCOCCOCCO)c2C)c1 [B10]
inhibition at 10 µM (hPXR [1]): 62% | IC50 (hPXR [1]; [5]): 2.34 ± 0.57 µM | EC50 (hPXR [2]): > 30 µM | IC50 (hPXR [3]): 1.92 ± 0.23 µM | inhibition at 10 µM (hPXR [3]): 102% | IC50 (hPXR [4]): 0.43 ± 0.14 µM | inhibition at 10 µM (hPXR [4]): 95%

SMILES: COc1ccc(OC)c(-n2nnc(C(=O)Nc3cc(C(C)(C)C)ccc3OC(C)C)c2C)c1 [B12]
inhibition at 10 µM (hPXR [1]): 88% | IC50 (hPXR [1]; [5]): 0.021 ± 0.005 µM | EC50 (hPXR [2]): > 30 µM | IC50 (hPXR [3]): 0.049 ± 0.01 µM | inhibition at 10 µM (hPXR [3]): 107% | IC50 (hPXR [4]): 0.0074 µM | inhibition at 10 µM (hPXR [4]): 119%

SMILES: COc1ccc(OC)c(-n2nnc(C(=O)Nc3cc(C(C)(C)C)ccc3OCCCCCCCCI)c2C)c1 [B19]
inhibition at 10 µM (hPXR [1]): 68% | IC50 (hPXR [1]; [5]): 0.5 ± 0.12 µM | EC50 (hPXR [2]): > 30 µM | IC50 (hPXR [3]): 2.48 µM | inhibition at 10 µM (hPXR [3]): 86% | IC50 (hPXR [4]): 0.43 ± 0.14 µM | inhibition at 10 µM (hPXR [4]): 95%

SMILES: COc1ccc(OC)c(-n2nnc(C(=O)Nc3cc(C(C)(C)C)ccc3OCCCCN3CCN(C)CC3)c2C)c1 [B22, N-(5-(tert-butyl)-2-(4-(4-methylpiperazin-1-yl)butoxy)phenyl)-1-(2,5-dimethoxyphenyl)-5-methyl-1H-1,2,3-triazole-4-carboxamide]
IC50 (hPXR [1]): > 30 µM | EC50 (hPXR [2]): > 30 µM | IC50 (hPXR [3]): 6.09 ± 0.85 µM | inhibition at 10 µM (hPXR [3]): 114% | IC50 (hPXR [4]): 3.08 ± 0.55 µM | inhibition at 10 µM (hPXR [4]): 168%
